# Source: PMC6592895, “Unusual Flavones from Primula macrocalyx as Inhibitors of OAT1 and OAT3 and as Antifungal Agents against Candida rugosa” (Scientific Reports, 2019)
# Read-outs that look alike come from different tables or passages of the source.
# Key:
# [1] = test system: OAT1; conditions: cited from earlier work
# [2] = test system: OAT3; conditions: read-out: IC50 OAT3; biflavonoids from Juniperus oblonga; cited from earlier work
# [3] = biological target: T1, OAT1 (Homo sapiens, UniProt Q4U2R8); test: 6-CF uptake assay in HEK-OAT1 cells; conditions: for inhibition at 5 min, 50 µM: human, HEK293 cells stably overexpressing OAT1 (HEK-OAT1), pH 7.2, probe 6-CF (4 µM)
# T1 sequence (Q4U2R8 1-563): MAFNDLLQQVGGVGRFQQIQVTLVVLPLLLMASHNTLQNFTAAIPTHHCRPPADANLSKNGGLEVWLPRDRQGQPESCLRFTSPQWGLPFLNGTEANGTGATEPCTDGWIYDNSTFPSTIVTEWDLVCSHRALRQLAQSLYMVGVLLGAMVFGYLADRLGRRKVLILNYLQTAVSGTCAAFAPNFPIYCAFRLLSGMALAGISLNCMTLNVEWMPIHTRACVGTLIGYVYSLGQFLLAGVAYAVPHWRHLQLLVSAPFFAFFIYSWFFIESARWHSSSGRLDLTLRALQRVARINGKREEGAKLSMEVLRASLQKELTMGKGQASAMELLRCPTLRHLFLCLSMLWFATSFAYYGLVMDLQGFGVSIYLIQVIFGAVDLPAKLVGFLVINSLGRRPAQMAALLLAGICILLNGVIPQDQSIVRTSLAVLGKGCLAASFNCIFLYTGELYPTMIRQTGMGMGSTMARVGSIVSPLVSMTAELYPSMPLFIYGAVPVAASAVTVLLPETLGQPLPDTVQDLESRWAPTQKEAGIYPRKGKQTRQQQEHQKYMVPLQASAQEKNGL
# Description: (§1) The interactions of 12 flavones with the uptake of 6-CF in HEK-OAT1 and HEK-OAT3 cells were evaluated. This cell uptake assay was performed as previously described[14],[35]. A density of 5 × 10^4 cells were seeded per well in 96-well culture plates precoated with poly-D-lysine. […] Uptake was terminated by adding 100 µL ice-cold uptake buffer, and quickly washing the cells in each well three times with ice-cold phosphate-buffered saline (PBS). The cells were lysed with 100 µL of 20 mM Tris-HCl containing 0.2% TritonX-100. […] The protein content of the cell lysate was quantified using a BCA Protein Assay Kit. The intensity of fluorescence was standardized against total protein content, and measured in triplicate. The stock solutions of tested compounds were dissolved in DMSO with a final concentration of 50 mM and dilutions were made using uptake buffer.
# (§2) For the uptake experiments, data were analyzed with a two-tailed unpaired Student’s t-test.
# [4] = biological target: T2, OAT3 (Homo sapiens, UniProt Q8TCC7); test: 6-CF uptake assay in HEK-OAT3 cells
# T2 sequence (Q8TCC7 1-542): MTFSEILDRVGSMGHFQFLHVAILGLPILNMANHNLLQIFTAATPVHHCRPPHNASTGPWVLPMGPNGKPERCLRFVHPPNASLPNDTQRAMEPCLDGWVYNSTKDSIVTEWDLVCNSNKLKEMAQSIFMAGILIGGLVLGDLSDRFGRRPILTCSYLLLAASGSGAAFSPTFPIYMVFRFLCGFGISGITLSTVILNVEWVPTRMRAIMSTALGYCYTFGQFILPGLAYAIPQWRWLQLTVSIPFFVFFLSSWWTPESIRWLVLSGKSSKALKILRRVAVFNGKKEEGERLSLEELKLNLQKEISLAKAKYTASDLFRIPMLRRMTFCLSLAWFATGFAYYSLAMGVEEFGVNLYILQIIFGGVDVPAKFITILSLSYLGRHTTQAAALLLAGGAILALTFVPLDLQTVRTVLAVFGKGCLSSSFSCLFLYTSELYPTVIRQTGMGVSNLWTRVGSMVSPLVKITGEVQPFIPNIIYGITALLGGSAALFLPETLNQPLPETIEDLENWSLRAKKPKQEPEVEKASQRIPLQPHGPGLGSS
# Description: as §1, §2
# [5] = test system: Candida rugosa (ATCC 10571); test: Broth microdilution antifungal assay; format: cell-based; conditions: YM broth, 25 °C, read-out: MICs C. rugosa
# Description: Antifungal activity against C. rugosa (ATCC 10571) was measured as previously described using a broth microdilution method[36]–[38] with minor modifications. The assay was performed in sterile 96-well microtiter plates. Briefly, YM broth was prepared and autoclaved for 20 min at 121 °C, then allowed to cool to room temperature (25 °C). C. rugosa was dispersed in YM broth to an optical density of 1 UA at 600 nm (approximately 1 × 10^7 cfu/mL) using uninoculated broth as the blank. A 198 µL aliquot of the resulting fungal suspension was dispensed into each well of a 96-well plate. Stock solutions of the twelve compounds were prepared in DMSO at a concentration of 50 mM. The stock solutions were diluted to a range of final concentrations (500–0.14 µM) in YM broth such that the final DMSO concentration was no higher than 1%, v/v. A 2 µL aliquot of the resulting test samples was transferred to each well of the plate. Plates were incubated at 25 °C for 24 h prior to measurement of the optical density of each well at 600 nm. […] Amphotericin B was used as positive control.
# [6] = test system: OAT3; conditions: cited from earlier work
# [7] = test system: OAT1; conditions: read-out: IC50 OAT1; assay similar to that used in this study; cited from earlier work
# [8] = test system: OAT1; conditions: cited from earlier work; remark: listed apart in the source
# [9] = test system: Oat3; conditions: rat, in vivo, po; cited from earlier work
# [10] = test system: OAT3; parameters: method as in PMID 30248705; conditions: previous study; cited from earlier work
# [11] = test system: Candida rugosa; test: Agar well diffusion antimicrobial assay; format: cell-based; conditions: Diutina rugosa, fraction at 1 mg/mL in DMSO, read-out: diameter zone of inhibition
# Description: Approximately 15 mL aliquots of each medium were dispensed into petri plates and allowed to solidify, then incubated for 24 h to ensure sterility prior to use. Microbial suspensions (0.5 mL) at a density of 5 × 10^6 cfu/mL were inoculated onto the sterile media and allowed to stand for 10–20 min before wells were cut into the agar using a sterile pipet tip. A 10 µL aliquot of a DMSO solution of plant extracts (1 mg/mL) or fractions (2, 0.2, 0.02 mg/mL) were pipetted into each well. Similarly, 10 µL portions of DMSO and a solution of an appropriate antibiotic standard were applied to each plate as negative and positive controls, respectively. All treated plates were incubated for 24 h in incubators at appropriate temperatures. Zones of inhibition were measured in millimeters. The assays were performed in triplicate.
# [12] = test system: OAT1; parameters: method as in PMID 30248705; conditions: previous study; cited from earlier work
# [13] = Diutina rugosa, ATCC10571, 24 h
structure (smiles),measurement,setting,value
O=c1cc(-c2ccc(O)c(O)c2)oc2cc(O)cc(O)c12 [luteolin],IC50,[1],0.47 µM
O=c1cc(-c2ccc(O)cc2)oc2c(-c3c(O)cc(O)c4c(=O)cc(-c5ccc(O)cc5)oc34)c(O)cc(O)c12 [cupressuflavone],IC50,[2],> 50 µM
"COc1ccc(O)cc1-c1cc(=O)c2ccccc2o1 [Compound 5, 2′-methoxy-5′-hydroxyflavone]",IC50,[3],26.9 µM
same,IC50,[4],27.3 µM
same,MIC,[5]; [13],> 500 µM
"COc1cccc(OC)c1-c1cc(=O)c2c(OC)c(OC)cc(OC)c2o1 [Compound 11, 5,6,8,2′,6′-pentamethoxyflavone]","inhibition at 5 min, 50 µM",[3],< 70%
same,IC50,[4],10.9 µM
same,MIC,[5]; [13],> 500 µM
"COc1ccc(OC)c(-c2cc(=O)c3ccccc3o2)c1 [Compound 4, 2′,5′-dimethoxyflavone]",IC50,[3],32.9 µM
same,IC50,[4],12.1 µM
same,MIC,[5]; [13],> 500 µM
"COc1ccccc1-c1cc(=O)c2ccccc2o1 [Compound 3, 2′-methoxyflavone]",IC50,[3],2.9 µM
same,IC50,[4],6.3 µM
same,MIC,[5]; [13],> 500 µM
O=c1cc(-c2ccccc2)oc2cc(O)c(O)c(O)c12 [baicalein],IC50,[6],2.4 µM
COc1c(O)cc(O)c2c(=O)cc(-c3ccccc3)oc12 [Wogonin],IC50,[7],5.4 µM
same,IC50,"[6]; read-out: IC50 OAT3, assay similar to that used in this study",1.3 µM
"COc1ccccc1-c1cc(=O)c2c(OC)c(OC)ccc2o1 [Compound 12, 5,6,2′-trimethoxyflavone]",IC50,[3],9.6 µM
same,IC50,[4],2.9 µM
same,MIC,[5]; [13],< 2 µM
same,MIC,[5]; 24 h,2.0 µM
O=c1cc(-c2ccc(O)cc2)oc2cc(O)cc(O)c12 [Apigenin],IC50,[8],0.737 µM
"O=c1cc(-c2cccc(O)c2)oc2ccccc12 [Compound 9, 3′-hydroxyflavone]",IC50,[3],11.4 µM
same,IC50,[4],8 µM
same,MIC,[5]; [13],> 500 µM
O=c1cc(-c2ccc(O)c(-c3c(O)cc(O)c4c(=O)cc(-c5ccc(O)cc5)oc34)c2)oc2cc(O)cc(O)c12 [amentoflavone],IC50,[2],2 µM
same,effect on pharmacokinetic parameters of furosemide (substrate of Oat3),[9],markedly altered
"O=c1cc(-c2ccccc2)oc2ccccc12 [Compound 2, flavone]",IC50,[3],9.4 µM
same,IC50,[4],4.6 µM
same,MIC,[5]; [13],500 µM
"COc1c(O)cc2c(=O)c(-c3ccccc3O)coc2c1OC [6,2′-dihydroxy-7,8-dimethoxyisoflavone]",IC50,[10],17.9 µM
"C[C@@H]1[C@H](O)[C@@H](C)/C=C/C=C/C=C/C=C/C=C/C=C/C=C/[C@H](O[C@@H]2O[C@H](C)[C@@H](O)[C@H](N)[C@@H]2O)C[C@@H]2O[C@](O)(C[C@@H](O)C[C@@H](O)[C@H](O)CC[C@@H](O)C[C@@H](O)CC(=O)O[C@H]1C)C[C@H](O)[C@H]2C(=O)O [Amphotericin B, reference compound]",zone of inhibition at 1000 µg/mL,[11],11 mm
same,MIC,[5]; [13],0.4 µM
COc1ccc(-c2cc(=O)c3c(O)cc(O)c(-c4cc(-c5cc(=O)c6c(O)cc(O)cc6o5)ccc4O)c3o2)cc1 [podocarpusflavone A],IC50,[2],3.8 µM
"COc1cc2c(=O)c(-c3ccccc3O)coc2c(OC)c1O [7,2′-dihydroxy-6,8-dimethoxyisoflavone]",IC50,[10],5.6 µM
"O=c1cc(-c2ccccc2O)oc2ccccc12 [Compound 10, 2′-hydroxyflavone]","inhibition at 5 min, 50 µM",[3],< 70%
same,IC50,[4],18.8 µM
same,MIC,[5]; [13],> 500 µM
"COc1cc2c(=O)c(-c3ccccc3O)coc2c(OC)c1OC [2′-hydroxy-6,7,8-trimethoxyisoflavone]",IC50,[10],8.7 µM
same,IC50,[12],9.1 µM
O=c1c(O)c(-c2ccc(O)cc2O)oc2cc(O)cc(O)c12 [Morin],IC50,"[1]; read-out: IC50 OAT1, PAH uptake assay in LLC-PK1 cells",< 0.3 µM
COc1ccc2c(=O)cc(-c3ccccc3)oc2c1 [7-methoxyflavone],IC50,[10],5.8 µM
same,IC50,[12],3.6 µM
"COc1cccc(-c2cc(=O)c3ccccc3o2)c1 [Compound 1, 3′-methoxyflavone]","inhibition at 5 min, 50 µM",[3],< 70%
same,"inhibition at 5 min, 50 µM","[4]; human, HEK293 cells stably overexpressing OAT3 (HEK-OAT3), pH 7.2, probe 6-CF (4 µM)",< 70%
same,MIC,[5]; [13],> 500 µM
"COc1cc(-c2cc(=O)c3ccccc3o2)cc(O)c1OC [Compound 6, 3′-hydroxy-4′,5′-dimethoxyflavone]",IC50,[3],3.2 µM
same,IC50,[4],5.1 µM
same,MIC,[5]; [13],> 500 µM
"COc1ccc(OC)c(-c2cc(=O)c3c(OC)c(OC)ccc3o2)c1OC [Compound 8, 5,6,2′,3′,6′-pentamethoxyflavone]",IC50,[3],10 µM
same,IC50,[4],7.4 µM
same,MIC,[5]; [13],< 2 µM
same,MIC,[5]; 24 h,1.2 µM
